Measured values: patent publication US8242145B2, “Cyclic diaryl ether compounds as antagonists of prostaglandin D2 receptors” (Panmira Pharmaceuticals, LLC, priority 2008, dated 2012)

Columns and labels:
[1] = biological target: T1, human DP1 receptor (Homo sapiens, UniProt Q13258); experiment: DP1 radioligand binding assay using [3H]BWA868C; conditions: hDP1 binding
T1 construct: tissue Biological Specialty Corporation; host or cells: human platelets, membranes
T1 sequence (Q13258 1-359): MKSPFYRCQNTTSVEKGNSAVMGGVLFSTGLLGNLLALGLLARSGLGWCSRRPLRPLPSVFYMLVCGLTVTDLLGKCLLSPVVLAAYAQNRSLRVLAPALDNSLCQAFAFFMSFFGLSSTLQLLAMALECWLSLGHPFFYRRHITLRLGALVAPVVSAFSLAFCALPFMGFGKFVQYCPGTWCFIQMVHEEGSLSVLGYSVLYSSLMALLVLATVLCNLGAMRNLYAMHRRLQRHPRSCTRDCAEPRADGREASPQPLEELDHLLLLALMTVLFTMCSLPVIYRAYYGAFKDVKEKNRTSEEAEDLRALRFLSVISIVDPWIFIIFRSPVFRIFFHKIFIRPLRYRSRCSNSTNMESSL
Method: The ability of a compound to bind to the human DP1 receptor was evaluated via a radioligand membrane binding assay using the DP1 selective synthetic ligand [^3H]BW A868C. Packed human platelets (Biological Specialty Corporation), were resuspended in 6 volumes of Hepes/HBSS buffer (10 mM Hepes, 1 mM DTT in Hanks Balanced Salt Solution (HBSS)), lysed and centrifuged at 75,000×g to pellet the membranes. Membranes were resuspended in Hepes/HBSS buffer to approximately 12 mg protein/ml. Membranes (20 μg protein/well) are incubated in 96-well plates with 2 nM [^3H]BWA868C and test compound in Assay Buffer (50 mM Hepes, 10 mM MnCl2, 1 mM EDTA, plus or minus 0.2% human serum albumin, pH 7.4) for 60 minutes at room temperature. The reactions are terminated by rapid filtration through Whatman GF/C glass fibre filter plates. The filter plates were pre-soaked in 0.33% polethylenimine for 30 minutes at room temperature then washed in Wash Buffer (50 mM Hepes, 0.5 M NaCl pH 7.4) prior to harvesting. After harvesting, the filter plates are washed 3 times with 1 ml cold Wash Buffer then dried. Scintillant is then added to the plates and the radioactivity retained on the filters is determined on a Packard TopCount (Perkin Elmer). Specific binding is determined as total radioactive binding minus non-specific binding in the presence of 10 μM BW A868C. IC50s were determined using GraphPad prism analysis of drug titration curves.

[2] = biological target: T2, recombinant human CRTH2 receptor (Homo sapiens, UniProt Q9Y5Y4); experiment: GTPγS binding assay; type: biochemical; conditions: +HSA; read-out: hDP2 GTPγS μM (+HSA)
T2 construct: expressed in transfected cells
T2 sequence (Q9Y5Y4 1-395): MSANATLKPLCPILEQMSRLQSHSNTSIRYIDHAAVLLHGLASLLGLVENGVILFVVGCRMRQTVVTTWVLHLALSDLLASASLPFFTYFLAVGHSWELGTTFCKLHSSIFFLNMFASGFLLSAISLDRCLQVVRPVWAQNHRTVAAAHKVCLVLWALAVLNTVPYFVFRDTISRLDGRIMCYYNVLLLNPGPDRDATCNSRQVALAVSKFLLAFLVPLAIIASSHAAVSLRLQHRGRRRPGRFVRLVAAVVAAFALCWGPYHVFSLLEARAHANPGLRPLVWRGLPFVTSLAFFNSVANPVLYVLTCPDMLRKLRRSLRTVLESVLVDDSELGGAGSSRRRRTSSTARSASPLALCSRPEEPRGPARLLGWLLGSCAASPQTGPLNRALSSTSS
Method: The ability of a compound to inhibit binding of GTP to DP2 is assessed via a membrane GTPγS assay. CHO cells stably expressing the recombinant human CRTH2 receptor are resuspended in 10 mM Hepes, 7.4 containing 1 mM DTT, lysed and centrifuged at 75,000×g to pellet the membranes. The membranes are resuspended in 10 mM Hepes, 7.4 containing 1 mM DTT and 10% glycerol. Membranes (˜12.5 μg per well) are incubated in 96-well plates with 0.05 nM [^35S]-GTPγS, 80 nM PGD2, 5 μM GDP, and test compound in Assay Buffer (50 mM Hepes, pH 7.4, 100 mM NaCl, 5 mM MgCl2 and 0.2% human serum albumin) for 60 minutes at 30° C. The reactions are terminated by rapid filtration through Whatman GF/B glass fibre filter plates. The filter plates are washed 3 times with 1 ml cold Assay Buffer and dried. Scintillant is then added to the plates and the radioactivity retained on the filters is determined on a Packard TopCount (Perkin Elmer). Specific binding is determined as total radioactive binding minus non-specific binding in the absence of the ligand (80 nM PGD2). IC50s were determined using Graphpad prism analysis of drug titration curves.

[3] = biological target: T3, human DP2 receptor (Homo sapiens, UniProt Q9Y5Y4); experiment: DP2/CRTH2 radioligand binding assay using [3H]PGD2; conditions: hDP2 (CRTH2) binding assay
T3 construct: expressed in transfected cells
T3 sequence (Q9Y5Y4 1-395): T2 sequence (Q9Y5Y4 1-395)
Method: The ability of a compound to bind to the human DP2 receptor is assessed via a radioligand binding assay using [^3H]PGD2. HEK293 cells stably expressing recombinant human DP2 are resuspended in 10 mM Hepes, 7.4 containing 1 mM DTT, lysed and centrifuged at 75,000×g to pellet the membranes. The membranes are resuspended in 10 mM Hepes, 7.4 containing 1 mM DTT and 10% glycerol to approximately 5 mg protein/ml. Membranes (2-10 μg protein/well) are incubated in 96-well plates with 1 nM [^3H]PGD2 and test compound in Assay Buffer (50 mM Hepes, 10 mM MnCl2, 1 mM EDTA, plus or minus 0.2% human serum albumin, pH 7.4) for 60 minutes at room temperature. The reactions are terminated by rapid filtration through Whatman GF/C glass fibre filter plates. The filter plates were pre-soaked in 0.33% polythylenimine for 30 minutes at room temperature then washed in Wash Buffer (50 mM Hepes, 0.5 M NaCl pH 7.4) prior to harvesting. After harvesting, the filter plates are washed 3 times with 1 ml cold Wash Buffer then dried. Scintillant is then added to the plates and the radioactivity retained on the filters is determined on a Packard TopCount (Perkin Elmer). Specific binding is determined as total radioactive binding minus non-specific binding in the presence of 10 μM PGD2. IC50s were determined using GraphPad prism analysis of drug titration curves.

IC50 [1] | IC50 [2] | IC50 [3] | Structure (SMILES)
> 1000 nM | 0.3 to 1 µM | < 300 nM | O=C(O)Cc1cccc(Oc2ccc(Br)cc2CN2CCOC2=O)c1 [Compound 1-3, {3-[4-Bromo-2-(2-oxo-oxazolidin-3-ylmethyl)-phenoxy]-phenyl}-acetic acid]
> 1000 nM | 0.3 to 1 µM | < 300 nM | O=C(O)Cc1cccc(Oc2ccc(-c3ccccc3)cc2CN2CCOC2=O)c1 [Compound 1-7, {3-[3-(2-Oxo-oxazolidin-3-ylmethyl)-biphenyl-4-yloxy]-phenyl}-acetic acid]
300 to 1000 nM | – | 300 to 1000 nM | C[C@H]1[C@@H](c2ccccc2)OC(=O)N1Cc1cc(-c2nccn2C)ccc1Oc1cccc(CC(=O)O)c1 [Compound 1-73, {3-[4-(1-Methyl-1H-imidazol-2-yl)-2-((4S,5R)-4-methyl-2-oxo-5-phenyl-oxazolidin-3-ylmethyl)-phenoxy]-phenyl}-acetic acid]
> 1000 nM | – | > 1000 nM | COc1ccc(CC(=O)O)cc1Oc1ccc(N2CCOCC2)cc1CN1CCOC1=O [Compound 1-90, {4-Methoxy-3-[4-morpholin-4-yl-2-(2-oxo-oxazolidin-3-ylmethyl)-phenoxy]-phenyl}-acetic acid]
> 1000 nM | – | < 300 nM | COc1ccc(CC(=O)O)cc1Oc1ccc(-c2ccc(S(C)(=O)=O)cc2)cc1CN1CCOC1=O [Compound 1-92, {3-[4′-Methanesulfonyl-3-(2-oxo-oxazolidin-3-ylmethyl)-biphenyl-4-yloxy]-4-methoxy-phenyl}-acetic acid]
> 1000 nM | – | < 300 nM | COc1ccc(CC(=O)O)cc1Oc1ccc(-c2cccc(S(C)(=O)=O)c2)cc1CN1CCOC1=O [Compound 1-93, {3-[3′-Methanesulfonyl-3-(2-oxo-oxazolidin-3-ylmethyl)-biphenyl-4-yloxy]-4-methoxy-phenyl}-acetic acid]
> 1000 nM | – | < 300 nM | COc1ccc(CC(=O)O)cc1Oc1ccc(NC(=O)c2cc(C(F)(F)F)ccc2F)cc1CN1CCOC1=O [Compound 1-98, {3-[4-(2-Fluoro-5-trifluoromethyl-benzoylamino)-2-(2-oxo-oxazolidin-3-ylmethyl)-phenoxy]-4-methoxy-phenyl}-acetic acid]
> 1000 nM | – | < 300 nM | COc1ccc(CC(=O)O)cc1Oc1ccc(NS(=O)(=O)c2ccc(Cl)cc2)cc1CN1CCOC1=O [Compound 1-99, {3-[4-(4-Chloro-benzenesulfonylamino)-2-(2-oxo-oxazolidin-3-ylmethyl)-phenoxy]-4-methoxy-phenyl}-acetic acid]
> 1000 nM | – | 300 to 1000 nM | COc1ccc(CC(=O)O)cc1Oc1ccc(Br)cc1CN1CCNC1=O [Compound 3-3, {3-[4-Bromo-2-(2-oxo-imidazolidin-1-ylmethyl)-phenoxy]-4-methoxy-phenyl}-acetic acid]

Further lines, the compound ahead of its results:

Structure (SMILES) | IC50 [1] | IC50 [2] | IC50 [3]
O=C(O)Cc1cccc(Oc2ccc(C(F)(F)F)cc2CN2CCOC2=O)c1 [Compound 1-5, {3-[2-(2-Oxo-oxazolidin-3-ylmethyl)-4-trifluoromethyl-phenoxy]-phenyl}-acetic acid] | > 1000 nM | < 0.3 µM | < 300 nM
CCNC(=O)c1ccc(Oc2cccc(CC(=O)O)c2)c(CN2CCOC2=O)c1 [Compound 1-6, {3-[4-Ethylcarbamoyl-2-(2-oxo-oxazolidin-3-ylmethyl)-phenoxy]-phenyl}-acetic acid] | > 1000 nM | 0.3 to 1 µM | 300 to 1000 nM
Cc1c[nH]c(-c2ccc(Oc3cccc(CC(=O)O)c3)c(CN3C(=O)O[C@H](c4ccccc4)[C@@H]3C)c2)n1 [Compound 1-72, {3-[4-(4-Methyl-1H-imidazol-2-yl)-2-((4S,5R)-4-methyl-2-oxo-5-phenyl-oxazolidin-3-ylmethyl)-phenoxy]-phenyl}-acetic acid] | > 1000 nM | – | < 300 nM
C[C@H]1[C@@H](c2ccccc2)OC(=O)N1Cc1cc(-c2nccs2)ccc1Oc1cccc(CC(=O)O)c1 [Compound 1-74, {3-[2-((4S,5R)-4-Methyl-2-oxo-5-phenyl-oxazolidin-3-ylmethyl)-4-thiazol-2-yl-phenoxy]-phenyl}-acetic acid] | < 300 nM | – | < 300 nM
COc1ccc(CC(=O)O)cc1Oc1ccc(-c2ccccc2S(C)(=O)=O)cc1CN1CCOC1=O [Compound 1-94, {3-[2′-Methanesulfonyl-3-(2-oxo-oxazolidin-3-ylmethyl)-biphenyl-4-yloxy]-4-methoxy-phenyl}-acetic acid] | > 1000 nM | – | < 300 nM
COc1ccc(CC(=O)O)cc1Oc1ccc(-c2ccccc2)cc1CN1CCOC1=O [Compound 1-95, {4-Methoxy-3-[3-(2-oxo-oxazolidin-3-ylmethyl)-biphenyl-4-yloxy]-phenyl}-acetic acid] | > 1000 nM | – | < 300 nM
COc1ccc(CC(=O)O)cc1Oc1ccc(-c2cnn(C)c2)cc1CN1CCOC1=O [Compound 1-96, {4-Methoxy-3-[4-(1-methyl-1H-pyrazol-4-yl)-2-(2-oxo-oxazolidin-3-ylmethyl)-phenoxy]-phenyl}-acetic acid] | > 1000 nM | – | < 300 nM
COc1ccc(CC(=O)O)cc1Oc1ccc(NC(=O)c2cc(C(F)(F)F)cc(C(F)(F)F)c2)cc1CN1CCOC1=O [Compound 1-97, {3-[4-(3,5-Bis-trifluoromethyl-benzoylamino)-2-(2-oxo-oxazolidin-3-ylmethyl)-phenoxy]-4-methoxy-phenyl}-acetic acid] | > 1000 nM | – | < 300 nM
O=C(O)Cc1cccc(Oc2ccc(Br)cc2CN2CCCC2=O)c1 [Compound 3-1, {3-[4-Bromo-2-(2-oxo-pyrrolidin-1-ylmethyl)-phenoxy]-phenyl}-acetic acid] | > 1000 nM | – | > 1000 nM
COc1ccc(CC(=O)O)cc1Oc1ccc(Br)cc1CN1CCN(C)C1=O [Compound 3-4, {3-[4-Bromo-2-(3-methyl-2-oxo-imidazolidin-1-ylmethyl)-phenoxy]-4-methoxy-phenyl}-acetic acid] | > 1000 nM | – | > 1000 nM
